Experiments:
AP-endonuclease (APE) = assay: AP site cleavage by AP-endonuclease (APE); type: biochemical
Procedure: 2. AP sites cleavaged by AP-endonuclease (APE). […] The assay may be performed as follows (see also FIGS. 23A and B):
a. AP site is prepared by replacing single nucleoside with deoxyuridine in duplex oligonucleotides (40 mer).
b. Regular AP site is produced in the duplex oligonucleotides by human uracil DNA glycosylase (LIDGase, Trevigen, Gaithersburg, Md.) to remove the uracil residue.
c. To generate MX-adducted AP site substrates: the UDG-treated duplex oligonucleotides are mixed with 10 mM MX in buffer containing 10 mM KPO4, pH 7.1 and incubated at 37° C. After 30 min, the substrates are recovered by ethanol precipitation, lyophilized, resuspended in water, and stored at −20° C.
d. APE-cleavage reaction: DNA substrates containing either regular AP-sites or chemicalmodified AP sites are incubated with APE (Trevigen, Gaithersburg, Md.) for 30 min and reactants are precipitated with 100% cold ethanol, washed with 70% ethanol and resuspended in TE buffer. The reactants are resolved by denaturing 20% polyacrylamide gel electrophoresis and visualized by silver staining (Silver Staining Kit, Pharmacia Biotech).

AP sites in DNA = assay: Cellular image of fluorescent A-modified AP sites; type: cell-based; conditions: A alone
Procedure: (§1) On the basis of a similar molecular reaction to MX, (e.g., a primary amine with the carbonyl group of the abasic site), we tested whether a compound (Compound A) would have the ability to bind to AP site generated by TMZ and enhance the killing effect of TMZ. A has a MX-like structure to bind to AP site and also has fluorescence molecules to provide a signal for direct detection of modified AP sites using cellular image. […] In in vitro study, we observed A at non-toxic concentrations (1 mM) sensitized cells to TMZ-cytotoxicity 2-3-fold. In a xenograft model, A (2 mg/kg) combined with TMZ (80 mg/kg) enhanced anti-tumor effect in HCT116 and DLD1, two xenograft tumors with very high resistance to TMZ. Tumor growth delays were 13 days in HCT116 and 12 days in DLD1 treated with the combination of A and TMZ over TMZ alone. Thus, A has a similar effect to MX on interruption of BER and can potentiate chemotherapeutic agents such as alkylating agents. Results are depicted in FIGS. 14-16.

[1] = tested on: DLD1 cells and HCT116 cells; assay: Potentiation of TMZ cytotoxicity by compound A in tumor cells; type: cell-based
Procedure: as §1

[2] = tested on: AP sites in calf thymus DNA; assay: Competitive AP site binding assayed by Aldehyde Reactive Probe (ARP)
Excerpt: 1. Analysis of chemical—modified AP Sites assayed by Aldehyde Reactive Probe (ARP). This is a competitive assay to measure the reactivity with AP site between ARP reagent (Dojindo Molecular Technologies Inc., Gaithersburg, Md.) and the screening compounds. ARP and MX have a similar reactivity with AP sites. They react specifically with an aldehyde group that is open ring form of the AP sites. Thus this assay will allow identification of compounds with potential to block AP site repair based on the binding affinity and efficiency to AP sites of screening compounds compared to ARP and MX.
a. AP site standard preparation: AP sites were produced in a calf thymus DNA by heat/acid-buffer solution. Intact calf thymus DNA was added to sodium citrate buffer (10 mM sodium citrate containing 10 mM NaH2PO4 and 10 mM NaCl, pH 5.0) and held at 70° C. for 30 min. The reaction was stopped by chilling rapidly on ice, and the DNA was then precipitated with cold ethanol, washed with 70% ethanol, dried, and resuspended in sterilized distilled water.
b. […] After NC membrane was rinsed with washing buffer containing NaCl (0.26 M), EDTA (1 mM), Tris-HCI (20 mM), and Tween 20 (1%), ARP-AP sites are visualized with ECL reagents (Amersham Corp.) (FIG. 22A) and quantitated by scanning densitometer (FIG. 22B).

## NNC(=S)Nc1ccc(-c2c3ccc(=O)cc-3oc3cc(O)ccc23)c(C(=O)O)c1 [Compound A]
AP-endonuclease (APE)
  cleavage of modified AP sites by APE: refractory to cleavage
AP sites in DNA
  fluorescence signal: no visualized fluorescence signal
[1]; 1 mM
  cytotoxicity of A alone: non-toxic
[1]; A at 1 mM
  sensitization to TMZ-cytotoxicity: 2-3 fold
[2]
  binding to AP sites assayed with ARP: able to bind to AP sites
